Assay results published in patent US20110105496A1, “Methods For The Treatment Of Myosin Heavy Chain-Mediated Conditions Using 4,7-Dihydrothieno[2,3-B]Pyridine Compounds” (priority 2005, published 2011).

Test system: alpha-MyHC
Assay: alpha-MyHC cytoblot process in neonatal rat ventricular myocytes (NRVM)
Assay type: cell-based
Details: NRVM, 72 hours; for EC50: alpha-MyHC cytoblot
Method: In vitro activity of each compound is measured using the alpha-MyHC cytoblot process. Briefly, neonatal rat ventricular myocytes (NRVM) at 120,000 cells/ml in HyQ DME/High modified culture media supplemented with 10% charcoal/dextran treated FBS, 0.1% Nutridoma-SP, 1:100 MEM non-essential amino acids, 1:50 MEM amino acids solution w/o L-Gln, 1 mM sodium pyruvate and 1:100 P/S/G, are plated on gelatin coated sterile 384-well plates (Costar 3712) at 6,000 cells per well. Cells are incubated overnight at 37° C. in 5% CO2 100% humidity. Following overnight growth the media is changed to HyQ DME/High modified culture media supplemented with 0.3% Nutridoma-SP, 1:100 MEM non-essential amino acids, 1:50 MEM amino acids solution w/o L-Gln, 1 mM sodium pyruvate and 1:100 P/S/G. Cells are then dosed with serial dilutions of each compound in DMSO. Each concentration in the dose range is dosed in quadruplicate. Dosing is done in such a way so that the final DMSO concentration was 0.44%. Compound dilutions are 3-fold with the final top concentration of 10 uM. […] Following dosing, the cells are incubated for 72 hours at 37° C. in 5% CO2 100% humidity and then processed with the cytoblot method. Briefly, cell media is aspirated and cell monolayers washed with PBS and fixed with 100% methanol for 30 minutes. Fixed cells are then blocked with PBS, 0.05% Tween-20, 1% BSA, for 1 hour. Following blocking, cells are incubated with primary alpha-MyHC-specific antibody antibody (1:30 dilution of BA-G5 hybridoma conditioned media, ATCC HB276) for 1 hour. Following incubation with the primary antibody, cells are washed with PBS, 0.05% Tween-20, 1% BSA and incubated with secondary antibody (1:1000 dilution, goat-anti-mouse HRP, Southern Biotech, 1031-05) for 1 hour. Following incubation with the secondary antibody, wells are washed and incubated in SuperSignal, West Dura HRP-luminescence substrate for 30 seconds under shaking at room temperature. Luminescence is measured using a Packard Fusion plate reader. […] RLU values are converted into per cent fraction of low control and dose responses are fitted to a sigmoidal 4-parameter equation (XLFit, IDBS) where the EC50 and Max Plateau values were extracted. […] Max Plateau is the […] maximum value determined by the dose response fit.

[1] = Table 2 (esters), maximum of dose response fit
[2] = Table 1, maximum of dose response fit, low control = vehicle only

EC50 (Table 1, mean ± spread) [nM] | SMILES | Max Plateau [2] | other results
– | CCOC(=O)C1=C(CC)Nc2sc(C(=O)c3ccc(Cl)c(Cl)c3)c(N)c2C1c1ccncc1F (stereo not drawn) [Compound 168] | – | EC50 (Table 2 (esters)): 7.12 nM; Max Plateau [1]: 239.64 per cent fraction of low control
4290 | CC(=O)C1=C(C)Nc2sc(C(=O)c3ccccn3)c(N)c2C1c1ccccc1 (stereo not drawn) [Compound 16] | 163.33 ± 32.15 per cent fraction of low control | –
273 | CC(=O)C1=C(C)Nc2sc(C(=O)c3ccccc3)c(N)c2C1c1ccccc1F (stereo not drawn) [Compound 24] | 260.35 ± 43.53 per cent fraction of low control | –
– | CCC(=O)C1=C(CC)Nc2sc(C(=O)c3ccc(Cl)c(Cl)c3)c(N)c2C1c1ccncc1 (stereo not drawn) [Compound 104, 1-[3-amino-2-(3,4 dichloro-benzoyl)-6-ethyl-4 pyridin-4-yl-4,7 dihydro-thieno[2,3-b]pyridin-5-yl]-propan-1-one] | 242.77 ± 33.52 per cent fraction of low control | –
97.1 | CC(=O)C1=C(C)Nc2sc(C(=O)c3cccc(F)c3)c(N)c2C1c1ccccc1 (stereo not drawn) [Compound 61] | 230.65 ± 55.61 per cent fraction of low control | –
– | CC(=O)C1=C(C)Nc2sc(C(=O)c3ccc(Cl)c(Cl)c3)c(N)c2C1c1ccc(Cl)cc1Cl (stereo not drawn) [Compound 52] | 122.73 ± 20.55 per cent fraction of low control | –
– | CCC1=C(C(=O)OCC(C)C)C(c2ccccc2)c2c(sc(C(=O)c3ccc(Cl)c(Cl)c3)c2N)N1 (stereo not drawn) [Compound 161] | – | EC50 (Table 2 (esters)): 35.4 nM; Max Plateau [1]: 232.35 per cent fraction of low control
– | CCOC(=O)C1=C(C)Nc2sc(C(=O)c3cccc(Br)c3)c(N)c2C1(C)c1ccccc1 (stereo not drawn) [Compound 197] | – | EC50 (Rattus norvegicus, Ventricular myocyte, Table 4): 792 nM; Emax (Rattus norvegicus, Ventricular myocyte, Table 4, maximum of dose response fit, read-out: Max Plateau): 160 ± 10.9%
14.4 | CCC(=O)C1=C(CC)Nc2sc(C(=O)c3cccc(F)c3)c(N)c2C1c1ccccc1 (stereo not drawn) [Compound 49] | 299.18 ± 42.31 per cent fraction of low control | –
– | COC(=O)C1=C(CCc2ccccc2)Nc2sc(C(=O)c3ccc(Cl)c(Cl)c3)c(N)c2C1c1ccccc1F (stereo not drawn) [Compound 154] | – | EC50 (Table 2 (esters)): 303 nM; Max Plateau [1]: 125.87 per cent fraction of low control
14.8 | CCC(=O)C1=C(CC)Nc2sc(C(=O)c3ccccc3Cl)c(N)c2C1c1ccccc1 (stereo not drawn) [Compound 82] | 245.96 ± 30.73 per cent fraction of low control | –
– | COCCOCN1C(C)=C(C(C)=O)C(c2ccccc2)c2c1sc(C(=O)c1ccccc1)c2N (racemic) [Compound 209] | – | EC50 (Table 5 (R^4 substituted)): 393 nM; Max Plateau (Table 5 (R^4 substituted), maximum of dose response fit): 192.74 per cent fraction of low control
45.2 | CC(=O)C1=C(C)Nc2sc(C(=O)c3ccc(Cl)c(Cl)c3)c(N)c2C1c1cc(F)cc(F)c1 (stereo not drawn) [Compound 55] | 229.93 ± 37.33 per cent fraction of low control | –
– | COCCOC(=O)C1=C(C)Nc2sc(C(=O)c3ccc(Cl)c(Cl)c3)c(N)c2C1c1ccccc1 (stereo not drawn) [Compound 119] | – | EC50 (Table 2 (esters)): 142 nM; Max Plateau [1]: 234.93 per cent fraction of low control
12.1 | CCC(=O)C1=C(CC)Nc2sc(C(=O)c3ccccc3F)c(N)c2C1c1ccccc1 (stereo not drawn) [Compound 67] | 256.12 ± 53.66 per cent fraction of low control | –
1250 | CC(=O)C1=C(C)Nc2sc(C(=O)c3ccccc3Cl)c(N)c2C1c1ccccc1 (stereo not drawn) [Compound 57] | 246.00 ± 16.33 per cent fraction of low control | –
– | CCC1=C(C(=O)OCCOC)C(c2ccnc(F)c2)c2c(sc(C(=O)c3cccc(Cl)c3)c2N)N1 (single isomer, unassigned) [Compound 183] | – | Max Plateau [1]: 284.35 ± 38.37 per cent fraction of low control
9.84 | CCC(=O)C1=C(CC)Nc2sc(C(=O)c3cccc(C(=O)OC)c3)c(N)c2C1c1ccccc1 (stereo not drawn) [Compound 74] | 262.81 ± 32.38 per cent fraction of low control | –
217 | CCCC(=O)C1=C(CCC)Nc2sc(C(=O)c3ccc(Cl)c(Cl)c3)c(N)c2C1c1ccccc1F (stereo not drawn) [Compound 87] | 187.66 ± 12.24 per cent fraction of low control | –
– | CCC(=O)C1=C(CC)Nc2sc(C(=O)c3ccc(Cl)c(Cl)c3)c(N)c2C1c1ccc2ccccc2c1 (stereo not drawn) [Compound 88] | 113.45 ± 11.92 per cent fraction of low control | –
